These results are taken from article PMC8150913, “Chromene-Containing Aromatic Sulfonamides with Carbonic Anhydrase Inhibitory Properties” (International Journal of Molecular Sciences, 2021).

Structures are written as SMILES.

One series concerns the target T1, hCA I (Homo sapiens, UniProt P00915).
T1 construct: made in house
Nature of the series: Stopped-flow CA-catalyzed CO2 hydration inhibition assay. It is filed as biochemical. The note with it: stopped flow technique, mean from three different assays, recombinant enzyme, pH 7.4. How it is done:
(§1) An Applied Photophysics stopped-flow instrument was used for assaying the CA catalyzed CO2 hydration activity. Phenol red (at a concentration of 0.2 mM) was used as an indicator, working at the absorbance maximum of 557 nm, with 20 mM Hepes (pH 7.4) as a buffer, and 20 mM Na2SO4 (for maintaining constant ionic strength), following the initial rates of the CA-catalyzed CO2 hydration reaction for a period of 10–100 s. The CO2 concentrations ranged from 1.7 to 17 mM for the determination of the kinetic parameters and inhibition constants. […] However, the background activity from the uncatalyzed reaction is always subtracted when IC50 values are obtained by using the data analysis software for the stopped flow instrument. […] For each inhibitor, at least six traces of the initial 5–10% of the reaction were used for determining the initial velocity. The uncatalyzed rates were determined in the same manner and subtracted from the total observed rates. Stock solutions of the inhibitor (0.1 mM) were prepared in distilled, deionized water, and dilutions up to 0.01 nM were done thereafter with the assay buffer. Inhibitor and enzyme solutions were preincubated together for 15 min at room temperature prior to the assay, allowing the formation of the E–I complex. The inhibition constants were obtained by non-linear least-squares methods using PRISM 3 and the Cheng-Prusoff equation as reported earlier, which represent the mean from at least three different determinations. All CA isoforms were recombinant proteins obtained in house, as reported earlier.

The target of the next series is T2, hCA II (Homo sapiens, UniProt P00918).
T2 construct: made in house
Described as above. It is filed as biochemical. The conditions noted are these: for Ki: stopped flow technique, mean from three different assays, recombinant enzyme, pH 7.4. How it is done:
as §1

For a further series, the target named is T3, hCA IX (Homo sapiens, UniProt Q16790).
T3 construct: made in house
The description is as above. The note with it: stopped flow technique, mean from three different assays, recombinant enzyme, pH 7.4. The series is classed as biochemical. How it is done:
as §1

The next series has as its target T4, hCA XII (Homo sapiens, UniProt O43570).
T4 construct: made in house
The series is described as above. It is filed as biochemical. The conditions noted are these: stopped flow technique, mean from three different assays, recombinant enzyme, pH 7.4. As to the method: as §1

T4 sequence (O43570 25-354): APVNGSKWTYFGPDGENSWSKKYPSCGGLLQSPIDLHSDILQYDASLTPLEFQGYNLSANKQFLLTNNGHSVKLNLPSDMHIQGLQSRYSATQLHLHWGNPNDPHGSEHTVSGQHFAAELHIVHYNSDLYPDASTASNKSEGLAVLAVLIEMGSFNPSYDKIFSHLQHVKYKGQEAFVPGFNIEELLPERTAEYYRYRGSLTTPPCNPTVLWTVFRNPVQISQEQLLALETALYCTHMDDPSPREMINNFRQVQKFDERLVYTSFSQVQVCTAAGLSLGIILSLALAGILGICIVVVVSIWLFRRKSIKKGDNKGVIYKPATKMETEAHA
T1 sequence (P00915 whole entry): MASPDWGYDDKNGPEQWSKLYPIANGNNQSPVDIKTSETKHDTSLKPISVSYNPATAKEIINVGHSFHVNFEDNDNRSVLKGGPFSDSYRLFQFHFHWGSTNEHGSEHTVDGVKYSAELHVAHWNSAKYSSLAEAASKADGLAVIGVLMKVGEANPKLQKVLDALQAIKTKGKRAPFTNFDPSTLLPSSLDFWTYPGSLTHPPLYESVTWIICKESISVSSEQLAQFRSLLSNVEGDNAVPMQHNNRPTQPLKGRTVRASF

In turn, `NS(=O)(=O)c1ccc(NC(=O)c2cc(=O)c3ccccc3o2)cc1` [5a, 4-Oxo-N-(4-sulfamoylphenyl)-4H-chromene-2-carboxamide] registered a melting point of 296 to 298 °C. In addition, the Ki at hCA I came out at 525 ± 44.4 nM. The Ki on hCA II was found to be 35.1 ± 3.3 nM. The Ki on hCA IX was determined as 16.6 ± 1.5 nM. Moreover, the Ki on hCA XII worked out at 20.1 ± 1.7 nM.
Take `Cc1ccc2oc(C(=O)Nc3ccc(S(N)(=O)=O)cc3)cc(=O)c2c1` [5b, 6-Methyl-4-oxo-N-(4-sulfamoylphenyl)-4H-chromene-2-carboxamide]: the melting point was 307 to 308 °C. In addition, the Ki on hCA I was 5310 ± 272 nM. Besides, on hCA II, the Ki was found to be 95.9 ± 8 nM. Besides, the Ki at hCA IX is 77 ± 6.5 nM. The Ki at hCA XII was found to be 64.8 ± 6.1 nM.
In turn, `Cc1ccc2c(=O)cc(C(=O)Nc3ccc(S(N)(=O)=O)cc3)oc2c1` [5c, 7-Methyl-4-oxo-N-(4-sulfamoylphenyl)-4H-chromene-2-carboxamide] displayed a melting point of 309 to 311 °C. Moreover, the Ki on hCA I was found to be 3560 ± 228 nM. Moreover, the Ki on hCA II stood at 39.5 ± 3.2 nM. Moreover, on hCA IX, the Ki stood at 63.4 ± 6.3 nM. Moreover, the Ki at hCA XII came to 50.8 ± 4.3 nM.
Compound `CCc1ccc2oc(C(=O)Nc3ccc(S(N)(=O)=O)cc3)cc(=O)c2c1` [5d, 6-Ethyl-4-oxo-N-(4-sulfamoylphenyl)-4H-chromene-2-carboxamide] registered a melting point of 297 to 299 °C.
Turning to `Cc1cc2oc(C(=O)Nc3ccc(S(N)(=O)=O)cc3)cc(=O)c2cc1C` [5e, 6,7-Dimethyl-4-oxo-N-(4-sulfamoylphenyl)-4H-chromene-2-carboxamide], the melting point fell in the range of 310 to 312 °C. Also, the Ki at hCA I came to 2890 ± 161 nM. For the same compound, at hCA II, the Ki turned out to be 311 ± 28.3 nM. For the same compound, the Ki on hCA IX came out at 299 ± 18.4 nM. On hCA XII, the Ki worked out at 619 ± 36.7 nM.
In the same order, the values of `Cc1ccc2c(=O)cc(C(=O)Nc3ccc(S(N)(=O)=O)cc3)oc2c1C` [5f, 7,8-Dimethyl-4-oxo-N-(4-sulfamoylphenyl)-4H-chromene-2-carboxamide] are 328 to 330 °C, 341 ± 29.6 nM, 9.3 ± 0.5 nM, 19.5 ± 1.6 nM and 76.3 ± 6 nM.
`Cc1cc(C)c2c(=O)cc(C(=O)Nc3ccc(S(N)(=O)=O)cc3)oc2c1` [5g, 5,7-Dimethyl-4-oxo-N-(4-sulfamoylphenyl)-4H-chromene-2-carboxamide] returned a melting point of 304 to 306 °C. For the same compound, on hCA I, the Ki came to 682 ± 40.6 nM. For the same compound, the Ki at hCA II was 61.4 ± 4.4 nM. Moreover, on hCA IX, the Ki was 54.7 ± 5 nM. Besides, the Ki at hCA XII worked out at 46.4 ± 4.4 nM.
On to `Cc1cc(C)c2oc(C(=O)Nc3ccc(S(N)(=O)=O)cc3)cc(=O)c2c1` [5h, 6,8-Dimethyl-4-oxo-N-(4-sulfamoylphenyl)-4H-chromene-2-carboxamide], for which the melting point fell in the range of 309 to 311 °C. Also, the Ki at hCA I came to 505 ± 27 nM. Moreover, the Ki on hCA II stood at 46.6 ± 2.9 nM. Besides, the Ki at hCA IX came out at 22.5 ± 1.9 nM. Also, the Ki on hCA XII amounted to 26.8 ± 1.4 nM.
In the case of `NS(=O)(=O)c1ccc(NC(=O)c2cc(=O)c3cc(Cl)ccc3o2)cc1` [5i, 6-Chloro-4-oxo-N-(4-sulfamoylphenyl)-4H-chromene-2-carboxamide], the melting point lay within 296 to 298 °C. Moreover, the Ki at hCA I was found to be 2700 ± 265 nM. In addition, the Ki on hCA II came to 66.2 ± 5.8 nM. For the same compound, the inhibition constant (Ki) at hCA IX came out at 51 ± 4.8 nM. Also, on hCA XII, the Ki was 425 ± 41 nM.
For the compound `Cc1cc2oc(C(=O)Nc3ccc(S(N)(=O)=O)cc3)cc(=O)c2cc1Cl` [5j, 6-Chloro-7-methyl-4-oxo-N-(4-sulfamoylphenyl)-4H-chromene-2-carboxamide], the melting point lay in the range of 305 to 307 °C. For the same compound, the Ki on hCA I stood at 580 ± 50.5 nM. In addition, the Ki at hCA II was determined as 901 ± 75.4 nM. Besides, the Ki at hCA IX came to 516 ± 37.2 nM. On hCA XII, the Ki stood at 155 ± 10.1 nM.
Regarding `NS(=O)(=O)c1ccc(CNC(=O)c2cc(=O)c3ccccc3o2)cc1` [6a, 4-Oxo-N-(4-sulfamoylbenzyl)-4H-chromene-2-carboxamide], the melting point was 284 to 286 °C. Moreover, the Ki at hCA I came out at 628 ± 35.5 nM. The Ki at hCA II was found to be 219 ± 11.8 nM. Also, the Ki at hCA IX stood at 855 ± 49.2 nM. Further, the inhibition constant (Ki) on hCA XII worked out at 34 ± 2.2 nM.
In turn, `Cc1ccc2oc(C(=O)NCc3ccc(S(N)(=O)=O)cc3)cc(=O)c2c1` [6b, 6-Methyl-4-oxo-N-(4-sulfamoylbenzyl)-4H-chromene-2-carboxamide] came in with a melting point of 293 to 295 °C. Besides, the Ki on hCA I worked out at 612 ± 49.5 nM. Moreover, the Ki at hCA II is 81.7 ± 4.2 nM. The Ki on hCA IX was found to be 2040 ± 189 nM. The inhibition constant (Ki) on hCA XII was 320 ± 23.2 nM.
As for `NS(=O)(=O)c1ccc(CNC(=O)c2cc(=O)c3cc(Cl)ccc3o2)cc1` [6c, 6-Chloro-4-oxo-N-(4-sulfamoylbenzyl)-4H-chromene-2-carboxamide], the melting point was 299 to 301 °C. Moreover, the Ki on hCA I came out at 2650 ± 227 nM. Moreover, the Ki at hCA II came out at 679 ± 45 nM. Besides, at hCA IX, the Ki came out at 3280 ± 302 nM. Besides, the Ki at hCA XII turned out to be 59.4 ± 5 nM.
In the same order, the values of `NS(=O)(=O)c1ccc(CCNC(=O)c2cc(=O)c3ccccc3o2)cc1` [6d, 4-Oxo-N-(4-sulfamoylphenethyl)-4H-chromene-2-carboxamide] are 248 to 250 °C, 322 ± 27.9 nM, 16.6 ± 1.2 nM, 81 ± 7.7 nM and 212 ± 13.7 nM.
`Cc1ccc2oc(C(=O)NCCc3ccc(S(N)(=O)=O)cc3)cc(=O)c2c1` [6e, 6-Methyl-4-oxo-N-(4-sulfamoylphenethyl)-4H-chromene-2-carboxamide]: the melting point lay within 257 to 259 °C. At hCA I, the Ki is 247 ± 24.3 nM. Moreover, the Ki at hCA II turned out to be 36.4 ± 2.1 nM. In addition, the Ki on hCA IX was 72.7 ± 4.3 nM. Also, on hCA XII, the Ki amounted to 439 ± 32.2 nM.
Compound `Cc1ccc2c(=O)cc(C(=O)NCCc3ccc(S(N)(=O)=O)cc3)oc2c1` [6f, 7-Methyl-4-oxo-N-(4-sulfamoylphenethyl)-4H-chromene-2-carboxamide] had a melting point of 253 to 255 °C. At hCA I, the Ki was 334 ± 17.5 nM. At hCA II (ratio of Ki values), the “selectivity index (SI) hCA II compared to hCA I” value amounted to 44.47 and the “selectivity index (SI) hCA II compared to hCA XII” value is recorded as 44.97. Besides, on hCA II, the Ki was 7.5 ± 0.5 nM. The Ki on hCA IX was found to be 64.8 ± 3.4 nM. Also, on hCA XII, the Ki was found to be 337 ± 27.4 nM.
In turn, `CCc1ccc2oc(C(=O)NCCc3ccc(S(N)(=O)=O)cc3)cc(=O)c2c1` [6g, 6-Ethyl-4-oxo-N-(4-sulfamoylphenethyl)-4H-chromene-2-carboxamide] showed a melting point of 257 to 259 °C. Also, the Ki at hCA I came to 971 ± 82.4 nM. For the same compound, the Ki on hCA II is 280 ± 15.5 nM. The Ki at hCA IX worked out at 183 ± 16.1 nM. The Ki at hCA XII was found to be 148 ± 8.1 nM.
For `Cc1cc2oc(C(=O)NCCc3ccc(S(N)(=O)=O)cc3)cc(=O)c2cc1C` [6h, 6,7-Dimethyl-4-oxo-N-(4-sulfamoylphenethyl)-4H-chromene-2-carboxamide], the melting point was 282 to 284 °C. For the same compound, the Ki on hCA I was determined as 547 ± 39.2 nM. On hCA II, the Ki worked out at 51.2 ± 3.6 nM. Besides, the Ki on hCA IX amounted to 51.4 ± 4.5 nM. Further, the Ki at hCA XII came out at 22.6 ± 1.5 nM.
The like results for `Cc1ccc2c(=O)cc(C(=O)NCCc3ccc(S(N)(=O)=O)cc3)oc2c1C` [6i, 7,8-Dimethyl-4-oxo-N-(4-sulfamoylphenethyl)-4H-chromene-2-carboxamide] were, in that order, 280 to 282 °C, 214 ± 15.9 nM, 39.2 ± 3.7 nM, 84.5 ± 4.3 nM and 132 ± 11 nM.
Consider `Cc1cc(C)c2oc(C(=O)NCCc3ccc(S(N)(=O)=O)cc3)cc(=O)c2c1` [6j, 6,8-Dimethyl-4-oxo-N-(4-sulfamoylphenethyl)-4H-chromene-2-carboxamide], for which the melting point lay within 283 to 285 °C. Further, the Ki on hCA I amounted to 4410 ± 347 nM. Further, at hCA II, the Ki stood at 143 ± 12.8 nM. Further, on hCA IX, the Ki amounted to 91.1 ± 8.9 nM. Also, the Ki at hCA XII stood at 31.4 ± 2.6 nM.
In turn, `NS(=O)(=O)c1ccc(CCNC(=O)c2cc(=O)c3cc(Cl)ccc3o2)cc1` [6k, 6-Chloro-4-oxo-N-(4-sulfamoylphenethyl)-4H-chromene-2-carboxamide] had a melting point of 285 to 287 °C. Also, the Ki at hCA I is 927 ± 68.9 nM. In addition, the Ki on hCA II is 91.6 ± 7 nM. The Ki on hCA IX worked out at 1920 ± 146 nM. The Ki on hCA XII was 41.4 ± 3.4 nM.

In general, Ki refers to the equilibrium dissociation constant of an inhibitor or competing ligand from its target. A word on the melting point: it is the temperature of the solid-liquid transition.
